Results on 23 compounds are retold here after patent US9732087B2, “Diamino-pyridine, pyrimidine, and pyridazine modulators of the histamine H4 receptor” (JANSSEN PHARMACEUTICA NV, priority 2008, dated 2017).

Where a name gives a salt, the structure may show the parent alone. Read-outs that look alike come from different tables or passages of the source.

Assay [1] deals with diabetes induced obese (DIO) mouse model. Kind of assay: Insulin resistance in diabetes induced obese (DIO) mouse model. The class given is in vivo. Here is the method: Insulin Resistance in Diabetes Induced Obese Mouse Model.
The effect of administration of an H4R antagonist, 5-fluoro-4-methyl-2-{5-methyl-2-[4-(1-methyl-piperidin-4-yl)-butoxy]-pyridin-4-yl}-1H-benzoimidazole (U.S. Pat. No. 7,432,378, Example 165), was tested in the treatment of insulin resistance in the diabetes induced obese (DIO) mouse model. […] Our data support the claim that H4R antagonists have beneficial properties towards the treatment of type 2 diabetes and related metabolic diseases.

The target of assay [2] is T1, human H4 receptor (Homo sapiens (Human), UniProt Q9H3N8). As to the kind of experiment: cell-based. It is filed as cell-based. On the procedure:
SK-N-MC cell lines were created that express a reporter gene construct and the human H4 receptor full-coding region (NCBI accession No. AF312230). The reporter gene was β-galactosidase under the control of cyclic AMP-responsive elements. Cells were plated in 96-well plates the night before the assay. Histamine was used as the agonist for all assay. For the H4 receptor, the inhibition of forskolin-stimulated cAMP production was measured. For determination of antagonist activity, compounds were added 10 min prior to the addition of agonist, which was added directly to the cell medium. Forskolin (5 μM final concentration) was added 10 min after the addition of histamine. Cells were returned to the incubator for 6 h at 37° C. The medium was then aspirated, and the cells were washed with […] of phosphate-buffered saline (PBS). Cells were lysed with 25 μL of 0.1X assay buffer (10 mM sodium phosphate, pH 8, 0.2 mM MgSO4, and 0.01 mM MnCl2) and incubated at rt for 10 min. Cells were then incubated for 10 min with 100 μL of 1X assay buffer containing 0.5% (v/v) Triton X-100 and 40 mM β-mercaptoethanol. Color was developed using 25 μL of 1 mg/mL substrate solution (chlorophenol red β-D-galactopyranoside; Roche Applied Science, Indianapolis, Ind.). Color was quantitated on a microplate reader by measuring the absorbance at 570 nm. The data from each concentration-response curve were fitted to a sigmoidal curve to obtain the maximum response, Hill coefficient, and EC50 using Prism (GraphPad Software, San Diego, Calif.). Dose ratios were calculated from individual concentration-response curves of agonists at three to five antagonist concentrations. Apparent pA2 values were calculated using a Schild plot (ND=not determined).

In assay [3] the target is T1, human H4 receptor. Kind of assay: Binding assay on recombinant human histamine H4 receptor ([3H]histamine competition, SK-N-MC cell membranes). The following applies: [3H]histamine 10 nM, average of results. Put shortly:
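Scintillation counting of filter-bound [3H]histamine after rapid harvesting on 0.5% PEI-treated GF/C filters with ice-cold Tris/EDTA washes. Receptor source: 30,000 g membrane pellets of SK-N-MC cells stably or transiently expressing human H4. Values shown as '>' are the top concentration tested.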

In assay [4] the test system is mast cells. The following applies: cited from earlier work.
Assay [5] has as its target H4 receptor (H4R) (Homo sapiens (Human), UniProt Q9H3N8). The following applies: in vitro; cited from earlier work.
The subject of assay [6] is mouse models of asthma, arthritis and dermatitis. The following applies: in vivo; cited from earlier work.
The subject of assay [7] is lipopolysaccharide (LPS)-induced tumor necrosis factor alpha (TNF-α) production. The following applies: in vivo; cited from earlier work.
Assay [8] deals with eosinophils. The note with it: cited from earlier work.
The subject of assay [9] is mast cells. The note with it: cited from earlier work. The source holds these as a separate data set.
Where [10] appears, read: apparent pA2 from Schild plot, antagonism of histamine inhibition of forskolin-stimulated cAMP, read-out: pA2 (converted).
[11] abbreviates: membranes harvested with cell harvester, read-out: Cell Harvester Ki.
Where [12] appears, read: apparent pA2 from Schild plot, antagonism of histamine inhibition of forskolin-stimulated cAMP.
Setting [13] is: membranes harvested with 96 well Brandel system, read-out: Brandel Ki.

T1 sequence (Q9H3N8 whole entry): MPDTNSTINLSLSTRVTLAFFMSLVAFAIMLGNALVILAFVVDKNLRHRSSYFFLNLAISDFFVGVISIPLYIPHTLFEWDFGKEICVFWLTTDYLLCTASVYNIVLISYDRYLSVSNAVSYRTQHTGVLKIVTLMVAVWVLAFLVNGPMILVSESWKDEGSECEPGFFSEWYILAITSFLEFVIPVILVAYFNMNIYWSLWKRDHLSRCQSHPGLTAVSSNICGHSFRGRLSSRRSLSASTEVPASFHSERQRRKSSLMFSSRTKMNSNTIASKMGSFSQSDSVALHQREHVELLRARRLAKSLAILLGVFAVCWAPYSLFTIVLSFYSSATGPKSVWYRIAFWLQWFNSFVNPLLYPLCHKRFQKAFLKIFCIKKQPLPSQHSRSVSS
Sequence of H4 receptor (H4R) (Q9H3N8 whole entry, species assumed): as the sequence (Q9H3N8 whole entry) above

With `Cc1cnc(OCCCCC2CCN(C)CC2)cc1-c1nc2c(C)c(F)ccc2[nH]1` [5-Fluoro-4-methyl-2-{5-methyl-2-[4-(1-methyl-piperidin-4-yl)-butoxy]-pyridin-4-yl}-1H-benzoimidazole], in [1], the “MCP-1 and TNF-α expression” value is reported as “reduced”; the “fat content in liver” value was “significantly reduced”. Also, in assay [1] (20 mg/kg PO), the “fed and fasted glucose levels” value is listed as “significantly reduced”; the “insulin sensitivity as determined by an insulin tolerance test” value is recorded as “improved”.
Turning to `CCCNc1cc(N2CC[C@@H](NC)C2)ccn1` [Example 3, 4-[(3R)-3-(Methylamino)pyrrolidin-1-yl]-N-propylpyridin-2-amine dihydrochloride], the Kb in assay [2] (setting [10]) is 2 nM. For the same compound, the Ki in assay [3] (setting [11]) worked out at 7.26 nM.
For the compound `CN[C@@H]1CCN(c2ccnc(NCC3CC3)c2)C1` [Example 4, N-(Cyclopropylmethyl)-4-[(3R)-3-(methylamino)pyrrolidin-1-yl]pyridin-2-amine ditrifluoroacetate], the Kb in assay [2] (setting [10]) was 1.38 nM. For the same compound, in assay [3] (setting [11]), the Ki came to 4.9 nM.
Take `CN[C@@H]1CCN(c2ccnc(NC(C)C)c2)C1` [Example 12, 4-[(3R)-3-(Methylamino)pyrrolidin-1-yl]-N-(1-methylethyl)pyridin-2-amine]: the pA2 in assay [2] (setting [12]) is reported as 8.5. Moreover, the Ki in assay [3] (setting [11]) came to 19.2 nM.
`CC(C)CNc1cc(N2CC[C@@H](N)C2)ccn1` [Example 20, 4-[(3R)-3-Aminopyrrolidin-1-yl]-N-(2-methylpropyl)pyridin-2-amine dihydrochloride]: the Kb in assay [2] (setting [10]) was 20 nM. Besides, the Ki in assay [3] (setting [13]) came to 3.5 nM.
With `CN[C@@H]1CCN(c2cnnc(NCC(C)C)c2)C1` [Example 95, 5-[(3R)-3-(Methylamino)pyrrolidin-1-yl]-N-(2-methylpropyl)pyridazin-3-amine], the pA2 in [2] (setting [12]) was 7.8. Also, the Ki in assay [3] (setting [13]) and in assay [3] (setting [11]) was 15 nM each time.
For the compound `CN[C@H]1CCN(c2ccnc(NC3CC4CCC3C4)n2)C1` (stereo partly drawn) [Example 162, N-Bicyclo[2.2.1]hept-2-yl-4-[(3S)-3-(methylamino)pyrrolidin-1-yl]pyrimidin-2-amine], the pA2 in assay [2] (setting [12]) amounted to 8.1. Also, the Ki in [3] (setting [11]) stood at 7.14 nM.
As to `CN[C@@H]1CCN(c2ccnc(NC[C@H]3CC[C@H]4C[C@@H]3C4(C)C)n2)C1` [Example 193, N-{[(1S,2S,5S)-6,6-Dimethylbicyclo[3.1.1]hept-2-yl]methyl}-4-[(3R)-3-(methylamino)pyrrolidin-1-yl]pyrimidin-2-amine], in assay [2] (setting [10]), the Kb is 12.6 nM. Moreover, the Ki in [3] (setting [11]) turned out to be 16 nM.
For `CN[C@@H]1CCN(c2ccnc(NC[C@H]3CC[C@H]4C[C@@H]3C4(C)C)c2)C1` [Example 217, N-{[(1S,2S,5S)-6,6-Dimethylbicyclo[3.1.1]hept-2-yl]methyl}-4-[(3R)-3-(methylamino)pyrrolidin-1-yl]pyridin-2-amine], in that order: 31.6 nM and 24.3 nM.
As for `CN[C@@H]1CCN(c2ccnc(NCC34CC5CC(CC(C5)C3)C4)c2)C1` [Example 220, Adamantan-1-ylmethyl-[4-(3R)-(3-methylamino-pyrrolidin-1-yl)-pyridin-2-yl]-amine], the Kb in assay [2] (setting [10]) is 25.1 nM. For the same compound, in assay [3] (setting [11]), the Ki stood at 6.48 nM.
Consider `CN[C@H]1CCN(c2ccnc(NC3CC4CCC3C4)c2)C1` (stereo partly drawn) [Example 231, N-Bicyclo[2.2.1]hept-2-yl-4-[(3S)-3-(methylamino)pyrrolidin-1-yl]pyridin-2-amine], for which the pA2 in [2] (setting [12]) was 9. Also, the Ki in [3] (setting [11]) was determined as 8.41 nM.
In the case of `CC(C)CNc1cc(N2C[C@H]3CCN[C@H]3C2)ccn1` [Example 257, 4-[(3aR,6aR)-Hexahydropyrrolo[3,4-b]pyrrol-5(1H)-yl]-N-(2-methylpropyl)pyridin-2-amine], the Kb in [2] was 50.1 nM. For the same compound, in assay [3] (setting [11]), the Ki amounted to 64.5 nM.
For the compound `c1nnc(NC2CC3CCC2C3)cc1N1CCCNCC1` (centres unmarked) [Example 308, N-Bicyclo[2.2.1]hept-2-yl-5-(1,4-diazepan-1-yl)pyridazin-3-amine], in assay [2] (setting [10]), the Kb was 79.4 nM. In addition, the Ki in assay [3] (setting [11]) worked out at 18.4 nM.
As for `CNC1CN(c2cnnc(NC3CC4CCC3C4)c2)C1` (centres unmarked) [Example 331, N-Bicyclo[2.2.1]hept-2-yl-5-[3-(methylamino)azetidin-1-yl]pyridazin-3-amine], the Kb in [2] (setting [10]) is 39.8 nM. Also, the Ki in [3] (setting [11]) stood at 96.7 nM.
In the case of `CN[C@H]1CCN(c2cnnc(NC3CCCC3)c2)C1` [Example 380, N-Cyclopentyl-5-[(3S)-3-(methylamino)pyrrolidin-1-yl]pyridazin-3-amine], in assay [2] (setting [10]), the Kb is 63.1 nM. In addition, the Ki in assay [3] (setting [11]) worked out at 54.3 nM.
For `CN[C@@H]1CCN(c2cnnc(NCC(C)(C)C)c2)C1` [Example 392, N-(2,2-Dimethylpropyl)-5-[(3R)-3-(methylamino)pyrrolidin-1-yl]pyridazin-3-amine], in that order: 7.94 nM and 18.3 nM.
Take `CN1CCN(c2cnnc(NC3CC4CCC3C4)c2)CC1` (centres unmarked) [Example 406, N-Bicyclo[2.2.1]hept-2-yl-5-(4-methylpiperazin-1-yl)pyridazin-3-amine]: in assay [3] (setting [11]), the Ki is 178 nM.
The same measure, in the same setting: next, `CN1CCN(c2cnnc(NC3CCCC3)c2)CC1` [Example 407, N-Cyclopentyl-5-(4-methylpiperazin-1-yl)pyridazin-3-amine]: 824 nM; `CN1CCN(c2cnnc(NCC3CCCC3)c2)CC1` [Example 408, N-(Cyclopentylmethyl)-5-(4-methylpiperazin-1-yl)pyridazin-3-amine]: greater than 10000 nM.
On the same count and under the same terms, the figure for `CN1CCN(c2cnnc(NCCc3ccccc3)c2)CC1` [Example 409, 5-(4-Methylpiperazin-1-yl)-N-(2-phenylethyl)pyridazin-3-amine] is greater than 10000 nM; for `CN1CCN(c2cnnc(NCc3ccccc3)c2)CC1` [Example 410, N-Benzyl-5-(4-methylpiperazin-1-yl)pyridazin-3-amine] it is greater than 10000 nM; for `CN[C@@H]1CCN(c2cnnc(NC3CCCC3)c2)C1` [Example 412, N-cyclopentyl-5-[(3R)-3-(methylamino)pyrrolidin-1-yl]pyridazin-3-amine] it is 5.6 nM.
Take `Cc1cc(C)c2nc(-c3cnc(NCCCC4CCN(C)CC4)nc3C)[nH]c2c1` [[5-(4,6-dimethyl-1H-benzoimidazol-2-yl)-4-methyl-pyrimidin-2-yl]-[3-(1-methyl-piperidin-4-yl)-propyl]-amine]: the “IL-6 production in mast cells” value in [4] is reported as “inhibited”. Moreover, in [5], the “selectivity over other histamine receptors” value is “greater than 25 fold”. Also, the “inflammation in mouse models of asthma, arthritis and dermatitis” value in [6] is recorded as “reduced inflammation”. Further, the “LPS-induced TNF-α production and other cytokines” value in assay [7] is “inhibited”. In addition, the “histamine-induced shape change of eosinophils” value in assay [8] is “inhibited”. In assay [9], the “chemotaxis of mast cells” value is “inhibited”.

What is called Ki is the dissociation constant of the complex between target and ligand, obtained from inhibition or displacement. By pA2 is commonly meant a measure of antagonist potency on a negative log scale.
